Results taken from the NIST ThermoML archive (doi:10.1016/j.jct.2019.02.011).

Test: xn = mol fraction of the nth substance listed
Conditions: Liquid, Vibrating tube method

COC(=O)OC [dimethyl carbonate] + CCO
mass density [kg/m3]
Conditions	100 kPa	5000 kPa	10000 kPa	15000 kPa	20000 kPa	25000 kPa	30000 kPa	35000 kPa	40000 kPa
303.15 K, x1 = 0.0252	–	–	–	–	–	–	–	817.99	821.19
303.15 K, x1 = 0.0506	–	–	–	–	–	–	–	827.65	830.86
303.15 K, x1 = 0.0757	–	–	–	–	–	–	–	836.92	840.19
303.15 K, x1 = 0.1003	–	–	–	–	–	–	–	845.76	849.04
303.15 K, x1 = 0.1508	–	–	–	–	–	–	–	863.66	867.01
303.15 K, x1 = 0.2	–	–	–	–	–	–	–	880.45	883.83
303.15 K, x1 = 0.2547	–	–	–	–	–	–	–	898.44	901.89
303.15 K, x1 = 0.3002	–	–	–	–	–	–	–	912.97	916.44
303.15 K, x1 = 0.3498	–	–	–	–	–	–	–	928.31	931.85
303.15 K, x1 = 0.4	–	–	–	–	–	–	–	943.37	946.93
303.15 K, x1 = 0.449	–	–	–	–	–	–	–	957.5	961.08
303.15 K, x1 = 0.4996	–	–	–	–	–	–	–	971.61	975.21
303.15 K, x1 = 0.5507	–	–	–	–	–	–	–	985.38	989
303.15 K, x1 = 0.6005	–	–	–	–	–	–	–	998.28	1001.97
303.15 K, x1 = 0.6455	–	–	–	–	–	–	–	1009.61	1013.31
303.15 K, x1 = 0.6931	–	–	–	–	–	–	–	1021.1	1024.81
303.15 K, x1 = 0.7502	–	–	–	–	–	–	–	1034.38	1038.11
303.15 K, x1 = 0.8009	–	–	–	–	–	–	–	1045.74	1049.49
303.15 K, x1 = 0.8505	–	–	–	–	–	–	1052.73	1056.47	1060.22
303.15 K, x1 = 0.9008	–	–	–	–	–	–	1063.26	1067	1070.77
303.15 K, x1 = 0.9255	–	–	–	–	–	–	1068.3	1072.05	1075.83
303.15 K, x1 = 0.9477	–	–	–	–	–	–	1072.75	1076.5	1080.28
303.15 K, x1 = 0.9735	–	–	–	–	–	–	1077.83	1081.57	1085.37
303.15 K, x1 = 1	–	–	–	–	–	–	1082.9	1086.6	1090.4
308.15 K, x1 = 0.0252	785.78	790.2	794.7	798.95	803.01	806.85	810.55	814.13	817.65
308.15 K, x1 = 0.0506	795.01	799.48	804.03	808.34	812.45	816.29	820.04	823.67	827.2
308.15 K, x1 = 0.0757	804.1	808.57	813.12	817.43	821.55	825.44	829.2	832.83	836.41
308.15 K, x1 = 0.1003	812.76	817.27	821.84	826.15	830.31	834.21	837.98	841.6	845.19
308.15 K, x1 = 0.1508	830.19	834.75	839.38	843.74	847.91	851.87	855.69	859.36	862.96
308.15 K, x1 = 0.2	846.57	851.18	855.82	860.24	864.46	868.48	872.26	875.98	879.58
308.15 K, x1 = 0.2547	864.3	868.96	873.61	878.08	882.31	886.33	890.22	893.94	897.55
308.15 K, x1 = 0.3002	878.53	883.23	887.94	892.42	896.65	900.73	904.63	908.34	911.96
308.15 K, x1 = 0.3498	893.6	898.3	903.03	907.51	911.79	915.88	919.79	923.55	927.17
308.15 K, x1 = 0.4	908.35	913.1	917.89	922.37	926.66	930.75	934.72	938.43	942.06
308.15 K, x1 = 0.449	922.34	927.13	931.93	936.46	940.76	944.91	948.88	952.59	956.23
308.15 K, x1 = 0.4996	936.23	941.03	945.84	950.37	954.72	958.88	962.91	966.61	970.26
308.15 K, x1 = 0.5507	949.8	954.65	959.47	964	968.36	972.52	976.56	980.26	983.92
308.15 K, x1 = 0.6005	962.5	967.34	972.17	976.76	981.12	985.34	989.34	993.09	996.75
308.15 K, x1 = 0.6455	973.59	978.43	983.27	987.86	992.27	996.5	1000.55	1004.29	1007.96
308.15 K, x1 = 0.6931	984.98	989.86	994.71	999.31	1003.72	1007.95	1012.02	1015.76	1019.43
308.15 K, x1 = 0.7502	998.06	1002.99	1007.85	1012.45	1016.86	1021.1	1025.17	1028.91	1032.59
308.15 K, x1 = 0.8009	1009.32	1014.25	1019.12	1023.72	1028.14	1032.39	1036.46	1040.2	1043.88
308.15 K, x1 = 0.8505	1019.95	1024.88	1029.76	1034.36	1038.78	1043.04	1047.12	1050.86	1054.54
308.15 K, x1 = 0.9008	1030.34	1035.27	1040.16	1044.76	1049.19	1053.46	1057.58	1061.29	1064.96
308.15 K, x1 = 0.9255	1035.32	1040.27	1045.13	1049.75	1054.19	1058.45	1062.57	1066.29	1069.95
308.15 K, x1 = 0.9477	1039.72	1044.68	1049.54	1054.15	1058.61	1062.87	1066.99	1070.7	1074.34
308.15 K, x1 = 0.9735	1044.8	1049.73	1054.59	1059.21	1063.67	1067.93	1072.03	1075.71	1079.36
308.15 K, x1 = 1	1049.91	1054.84	1059.69	1064.3	1068.73	1073	1077.1	1080.78	1084.38
